ChEMBL document CHEMBL4390667, “Novel tacrine-tryptophan hybrids: Multi-target directed ligands as potential treatment for Alzheimer's disease” (Eur J Med Chem, 2019)
Values belong to the compound of their own block, whether it stands above or below them. Calls of active or inactive are those of the source. The calls are words filed in the database; no cut-off is given here.

Assays:
Acetylcholinesterase [1] = target: Acetylcholinesterase (Homo sapiens, UniProt P22303)
Description: Inhibition of human recombinant AChE using acetylthiocholine iodide as substrate preincubated for 5 mins followed by substrate addition and measured over 2 mins by UV-Vis spectrophotometric analysis based Ellman's method

Cholinesterase = Cholinesterase (Homo sapiens, UniProt P06276)
Description: Inhibition of human recombinant BChE using butyrylthiocholine iodide as substrate preincubated for 5 mins followed by substrate addition and measured over 2 mins by UV-Vis spectrophotometric analysis based Ellman's method

Nitric oxide synthase 1 = Nitric oxide synthase 1 (Rattus norvegicus, UniProt P29476)
Description: Inhibition of nNOS in Wistar rat cortical homogenates incubated for 30 mins

[2] = pampa, pH 7.4, 100 µM
Description: Effective permeability of the compound in PBS buffer at pH 7.4 at 100 uM after 3 to 6 hrs by PAMPA

CHO-K1 = experiment: cells; details: Cricetulus griseus, CHO-K1, 24 h
Description: Cytotoxicity against CHOK1 cells assessed as reduction in cell viability incubated for 24 hrs by MTT assay

HepG2 = experiment: cells; details: Homo sapiens, HepG2, 24 h
Description: Cytotoxicity against human HepG2 cells assessed as reduction in cell viability incubated for 24 hrs by MTT assay

Acetylcholinesterase [3] = target: Acetylcholinesterase (Electrophorus electricus, UniProt O42275); experiment: Displacement of propidium iodide from peripheral binding site of electric eel AChE assessed as dissociation constant at 8 to 56 uM by spectrofluorometry based Taylor and Lappi method
[4] = Toxicity in Wistar rat assessed as change in body weight weight at 70 mg/kg, ip after 24 and 48 hrs; type: organism-based; details: in vivo
[5] = Toxicity in ip dosed Wistar rat assessed as maximum tolerated dose measured during first 2 hrs then periodically for 48 hrs; type: organism-based; details: in vivo
Rattus norvegicus [6] = experiment: Antialzhemeric activity in Wistar rat model of scopolamine-induced cognition deficit assessed as effect on escape latency at 10 nM, icv dosed 60 mins prior to training trial by Morris water maze test; type: functional, organism-based
Rattus norvegicus [7] = experiment: Antialzhemeric activity in Wistar rat model of scopolamine-induced cognition deficit assessed as effect on distance moved at 10 nM, icv dosed 60 mins prior to training trial by Morris water maze test; type: functional, organism-based
Rattus norvegicus [8] = experiment: Antialzhemeric activity in Wistar rat model of scopolamine-induced cognition deficit assessed as effect on average distance from platform at 10 nM, icv dosed 60 mins prior to training trial by Morris water maze test; type: functional, organism-based
Rattus norvegicus [9] = experiment: Antialzhemeric activity in Wistar rat model of scopolamine-induced cognition deficit assessed as effect on time in target sector at 10 nM, icv dosed 60 mins prior to training trial by Morris water maze test; type: functional, organism-based
Rattus norvegicus [10] = experiment: Antialzhemeric activity in Wistar rat model of scopolamine-induced cognition deficit assessed as effect on distance moved at 100 nM, icv dosed 60 mins prior to training trial by Morris water maze test; type: functional, organism-based
Rattus norvegicus [11] = experiment: Antialzhemeric activity in Wistar rat model of scopolamine-induced cognition deficit assessed as effect on escape latency at 100 nM, icv dosed 60 mins prior to training trial by Morris water maze test; type: functional, organism-based
Rattus norvegicus [12] = experiment: Antialzhemeric activity in Wistar rat model of scopolamine-induced cognition deficit assessed as effect on average distance from platform at 100 nM, icv dosed 60 mins prior to training trial by Morris water maze test; type: functional, organism-based
Rattus norvegicus [13] = experiment: Antialzhemeric activity in Wistar rat model of scopolamine-induced cognition deficit assessed as effect on time in target sector at 100 nM, icv dosed 60 mins prior to training trial by Morris water maze test; type: functional, organism-based
Rattus norvegicus [14] = experiment: Antialzhemeric activity in icv dosed Wistar rat model of scopolamine-induced cognition deficit assessed as effect on distance moved dosed 60 mins prior to training trial by Morris water maze test; type: functional, organism-based
Rattus norvegicus [15] = experiment: Antialzhemeric activity in icv dosed Wistar rat model of scopolamine-induced cognition deficit assessed as effect on escape latency dosed 60 mins prior to training trial by Morris water maze test; type: functional, organism-based
Rattus norvegicus [16] = experiment: Antialzhemeric activity in icv dosed Wistar rat model of scopolamine-induced cognition deficit assessed as effect on average distance from platform dosed 60 mins prior to training trial by Morris water maze test; type: functional, organism-based
Rattus norvegicus [17] = experiment: Antialzhemeric activity in icv dosed Wistar rat model of scopolamine-induced cognition deficit assessed as effect on time in target sector dosed 60 mins prior to training trial by Morris water maze test; type: functional, organism-based
[18] = Toxicity in Wistar rat assessed as induction of partial piloerection at 70 mg/kg, ip measured during first 2 hrs then periodically for 48 hrs; type: organism-based; details: in vivo
[19] = Toxicity in Wistar rat assessed as induction of persistent oculonasal discharge at 70 mg/kg, ip measured during first 2 hrs then periodically for 48 hrs; type: organism-based; details: in vivo
[20] = Toxicity in Wistar rat assessed as induction of intermittent abnormal breathing pattern at 70 mg/kg, ip measured during first 2 hrs then periodically for 48 hrs; type: organism-based; details: in vivo
[21] = Toxicity in Wistar rat assessed as induction of intermittent tremors and prostration at 70 mg/kg, ip measured during first 2 hrs then periodically for 48 hrs; type: organism-based; details: in vivo
[22] = Toxicity in Wistar rat assessed as induction of diminishing spontaneously and prostration at 70 mg/kg, ip measured during first 2 hrs; type: organism-based; details: in vivo
[23] = Toxicity in Wistar rat assessed as effect on distance moved at 100 nM, icv by Morris water maze assay; details: in vivo, icv_or_intrathecal, 0.1 µM
[24] = Toxicity in Wistar rat assessed as effect on escape latency at 100 nM, icv by Morris water maze assay; details: in vivo, icv_or_intrathecal, 0.1 µM
[25] = Toxicity in Wistar rat assessed as effect on average distance from platform at 100 nM, icv by Morris water maze assay; details: in vivo, icv_or_intrathecal, 0.1 µM
[26] = Toxicity in Wistar rat assessed as effect on time spent in the target sector at 100 nM, icv by Morris water maze assay; details: in vivo, icv_or_intrathecal, 0.1 µM
[27] = Toxicity in Wistar rat assessed as induction of salivation at 100 nM, icv by Morris water maze assay; details: in vivo, icv_or_intrathecal, 0.1 µM
[28] = Toxicity in Wistar rat assessed as induction of tremors at 100 nM, icv by Morris water maze assay; details: in vivo, icv_or_intrathecal, 0.1 µM

Sequence of Nitric oxide synthase 1 (P29476 whole entry, looked up): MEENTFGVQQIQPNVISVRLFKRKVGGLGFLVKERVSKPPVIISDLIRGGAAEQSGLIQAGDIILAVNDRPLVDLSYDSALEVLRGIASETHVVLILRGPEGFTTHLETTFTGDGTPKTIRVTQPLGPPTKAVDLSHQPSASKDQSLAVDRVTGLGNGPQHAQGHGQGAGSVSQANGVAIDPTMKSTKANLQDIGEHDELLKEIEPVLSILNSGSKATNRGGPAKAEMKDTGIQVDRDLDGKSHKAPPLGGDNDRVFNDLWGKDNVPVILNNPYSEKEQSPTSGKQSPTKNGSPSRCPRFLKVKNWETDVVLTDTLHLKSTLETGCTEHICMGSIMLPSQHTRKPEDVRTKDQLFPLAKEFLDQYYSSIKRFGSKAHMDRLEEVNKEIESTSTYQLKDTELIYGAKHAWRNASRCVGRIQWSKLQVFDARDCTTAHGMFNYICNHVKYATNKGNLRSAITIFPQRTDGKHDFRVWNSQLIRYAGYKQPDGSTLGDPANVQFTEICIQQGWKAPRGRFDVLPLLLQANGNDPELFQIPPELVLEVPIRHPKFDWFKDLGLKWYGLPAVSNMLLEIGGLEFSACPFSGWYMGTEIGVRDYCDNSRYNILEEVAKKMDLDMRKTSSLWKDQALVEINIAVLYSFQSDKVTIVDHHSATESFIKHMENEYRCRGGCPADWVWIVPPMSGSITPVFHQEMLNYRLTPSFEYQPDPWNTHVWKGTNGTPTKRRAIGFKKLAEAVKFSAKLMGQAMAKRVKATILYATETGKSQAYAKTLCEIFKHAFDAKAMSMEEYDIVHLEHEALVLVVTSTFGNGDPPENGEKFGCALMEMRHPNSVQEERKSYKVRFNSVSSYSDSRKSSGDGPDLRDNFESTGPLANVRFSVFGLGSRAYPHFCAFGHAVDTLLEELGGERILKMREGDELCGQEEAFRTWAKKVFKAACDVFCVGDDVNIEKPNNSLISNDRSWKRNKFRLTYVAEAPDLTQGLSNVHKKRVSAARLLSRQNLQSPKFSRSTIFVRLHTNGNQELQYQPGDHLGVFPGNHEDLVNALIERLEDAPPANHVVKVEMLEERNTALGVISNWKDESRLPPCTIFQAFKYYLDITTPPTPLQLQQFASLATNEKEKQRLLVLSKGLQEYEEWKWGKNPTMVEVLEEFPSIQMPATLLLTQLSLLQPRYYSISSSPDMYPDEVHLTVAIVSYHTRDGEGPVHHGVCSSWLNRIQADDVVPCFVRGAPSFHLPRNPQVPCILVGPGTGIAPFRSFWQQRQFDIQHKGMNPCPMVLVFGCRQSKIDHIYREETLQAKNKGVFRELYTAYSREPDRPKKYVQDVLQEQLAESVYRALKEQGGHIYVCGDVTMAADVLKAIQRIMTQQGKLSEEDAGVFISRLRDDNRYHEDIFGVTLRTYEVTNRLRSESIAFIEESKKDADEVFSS
Sequence of Acetylcholinesterase (Homo sapiens, UniProt P22303) (P22303 whole entry): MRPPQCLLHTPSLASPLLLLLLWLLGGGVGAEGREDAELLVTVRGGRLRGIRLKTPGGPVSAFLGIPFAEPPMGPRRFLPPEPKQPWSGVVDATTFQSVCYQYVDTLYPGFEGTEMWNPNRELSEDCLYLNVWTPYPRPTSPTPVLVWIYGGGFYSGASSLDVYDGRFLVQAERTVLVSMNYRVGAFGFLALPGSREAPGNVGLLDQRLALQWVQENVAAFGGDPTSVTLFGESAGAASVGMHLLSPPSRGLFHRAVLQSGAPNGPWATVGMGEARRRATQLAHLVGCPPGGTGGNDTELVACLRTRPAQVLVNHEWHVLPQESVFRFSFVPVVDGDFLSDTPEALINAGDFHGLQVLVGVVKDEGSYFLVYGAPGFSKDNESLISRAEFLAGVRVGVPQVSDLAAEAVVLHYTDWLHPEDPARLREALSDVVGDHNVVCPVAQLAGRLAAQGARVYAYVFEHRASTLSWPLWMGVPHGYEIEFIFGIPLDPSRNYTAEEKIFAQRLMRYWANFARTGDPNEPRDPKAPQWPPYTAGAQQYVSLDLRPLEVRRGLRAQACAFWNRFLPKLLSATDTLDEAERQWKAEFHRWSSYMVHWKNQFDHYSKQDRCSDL
Sequence of Cholinesterase (P06276 whole entry): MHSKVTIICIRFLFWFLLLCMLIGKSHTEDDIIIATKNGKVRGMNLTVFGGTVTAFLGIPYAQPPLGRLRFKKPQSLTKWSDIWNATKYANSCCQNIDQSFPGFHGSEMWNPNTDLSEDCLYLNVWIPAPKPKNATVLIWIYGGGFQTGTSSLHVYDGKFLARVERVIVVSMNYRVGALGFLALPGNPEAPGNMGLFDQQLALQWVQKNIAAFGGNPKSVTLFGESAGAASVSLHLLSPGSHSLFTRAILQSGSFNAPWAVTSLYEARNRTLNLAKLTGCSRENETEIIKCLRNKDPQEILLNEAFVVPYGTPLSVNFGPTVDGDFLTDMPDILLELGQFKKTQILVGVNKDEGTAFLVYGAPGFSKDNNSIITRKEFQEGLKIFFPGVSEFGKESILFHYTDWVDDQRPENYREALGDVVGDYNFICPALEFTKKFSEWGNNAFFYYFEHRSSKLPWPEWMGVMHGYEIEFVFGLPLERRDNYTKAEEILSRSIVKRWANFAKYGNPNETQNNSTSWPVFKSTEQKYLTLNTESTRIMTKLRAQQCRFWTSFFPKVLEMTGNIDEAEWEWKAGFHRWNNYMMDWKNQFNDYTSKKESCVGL
Sequence of Acetylcholinesterase (Electrophorus electricus, UniProt O42275) (O42275 whole entry): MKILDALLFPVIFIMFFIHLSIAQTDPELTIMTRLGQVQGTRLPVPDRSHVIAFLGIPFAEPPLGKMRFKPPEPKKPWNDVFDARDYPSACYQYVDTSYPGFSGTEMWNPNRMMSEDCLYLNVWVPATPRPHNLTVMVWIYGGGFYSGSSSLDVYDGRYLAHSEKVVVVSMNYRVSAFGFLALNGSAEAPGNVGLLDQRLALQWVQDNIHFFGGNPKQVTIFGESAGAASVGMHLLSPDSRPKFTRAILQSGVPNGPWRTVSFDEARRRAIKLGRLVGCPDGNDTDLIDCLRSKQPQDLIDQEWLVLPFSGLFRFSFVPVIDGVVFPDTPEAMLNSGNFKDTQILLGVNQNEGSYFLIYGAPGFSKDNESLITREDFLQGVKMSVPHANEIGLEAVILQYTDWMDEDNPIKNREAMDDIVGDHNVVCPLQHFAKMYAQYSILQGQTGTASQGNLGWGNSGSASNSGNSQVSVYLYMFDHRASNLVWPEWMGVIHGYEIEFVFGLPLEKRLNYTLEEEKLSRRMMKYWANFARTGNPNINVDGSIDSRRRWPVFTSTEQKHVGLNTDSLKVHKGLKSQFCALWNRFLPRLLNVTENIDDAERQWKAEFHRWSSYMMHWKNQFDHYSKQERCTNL

Structure (SMILES): Cl.Cl.N[C@@H](Cc1c[nH]c2ccccc12)C(=O)NCCCCNc1c2c(nc3ccccc13)CCCC2
- IC50 (Acetylcholinesterase [1]): 1.3 µM
- IC50 (Cholinesterase): 0.123 µM
- IC50 (Nitric oxide synthase 1): 18 µM
- permeability [2]: Permeable
- IC50 (CHO-K1): 34 µM

Structure (SMILES): COc1ccc2nc3c(c(NCCCCCNC(=O)[C@@H](N)Cc4c[nH]c5ccccc45)c2c1)CCCC3.Cl.Cl
- IC50 (Acetylcholinesterase [1]): 0.62 µM
- IC50 (Cholinesterase): 0.19 µM
- IC50 (Nitric oxide synthase 1): 26 µM
- permeability [2]: Impermeable
- IC50 (CHO-K1): 46 µM

Structure (SMILES): N[C@@H](Cc1c[nH]c2ccccc12)C(=O)NCCCNc1c2c(nc3cc(Cl)ccc13)CCCC2
- IC50 (Acetylcholinesterase [1]): 0.07 µM
- IC50 (Cholinesterase): 0.14 µM
- IC50 (Nitric oxide synthase 1): 31 µM
- IC50 (CHO-K1): 29 µM

Structure (SMILES): COc1ccc2nc3c(c(NCCCCNC(=O)[C@@H](N)Cc4c[nH]c5ccccc45)c2c1)CCCC3.Cl.Cl
- IC50 (Acetylcholinesterase [1]): 12 µM
- IC50 (Cholinesterase): 0.52 µM
- IC50 (Nitric oxide synthase 1): 27 µM
- permeability [2]: Impermeable
- IC50 (CHO-K1): 73 µM

Structure (SMILES): Cl.Cl.N[C@@H](Cc1c[nH]c2ccccc12)C(=O)NCCCCCCNc1c2c(nc3ccccc13)CCCC2
- IC50 (Acetylcholinesterase [1]): 0.12 µM
- IC50 (Cholinesterase): 0.0039 µM
- IC50 (Nitric oxide synthase 1): 33 µM
- permeability [2]: Impermeable
- IC50 (CHO-K1): 90 µM
- IC50 (HepG2): 26 µM

Structure (SMILES): N[C@@H](Cc1c[nH]c2ccccc12)C(=O)NCCCCCNc1c2c(nc3cc(Cl)ccc13)CCCC2
- IC50 (Acetylcholinesterase [1]): 0.076 µM
- IC50 (Cholinesterase): 0.074 µM
- IC50 (Nitric oxide synthase 1): 27 µM
- IC50 (CHO-K1): 21 µM

Structure (SMILES): Cl.Cl.N[C@@H](Cc1c[nH]c2ccccc12)C(=O)NCCCCCCNc1c2c(nc3cc(Cl)ccc13)CCCC2
- Kd (Acetylcholinesterase [3]): 4.82 µM
- Activity [4]: Non-Toxic
- MTD at 48 h [5]: 70 mg/kg
- Activity (Rattus norvegicus [6]): Active
- Activity (Rattus norvegicus [7]): inactive
- Activity (Rattus norvegicus [8]): Active
- Activity (Rattus norvegicus [9]): Active
- Activity (Rattus norvegicus [10]): Active
- Activity (Rattus norvegicus [11]): Active
- Activity (Rattus norvegicus [12]): Active
- Activity (Rattus norvegicus [13]): Active
- Activity (Rattus norvegicus [14]): Dose-dependent effect
- Activity (Rattus norvegicus [15]): Dose-dependent effect
- Activity (Rattus norvegicus [16]): Dose-dependent effect
- Activity (Rattus norvegicus [17]): Dose-dependent effect
- Activity [18]: Toxic
- Activity [19]: Toxic
- Activity [20]: Toxic
- Activity [21]: Toxic
- Activity [22]: Toxic
- Activity [23]: Non-Toxic
- Activity [24]: Non-Toxic
- Activity [25]: Non-Toxic
- Activity [26]: Non-Toxic
- Activity [27]: Non-Toxic
- Activity [28]: Non-Toxic
- IC50 (Acetylcholinesterase [1]): 0.0063 µM
- IC50 (Cholinesterase): 0.0091 µM
- IC50 (Nitric oxide synthase 1): 26 µM
- permeability [2]: Permeable
- IC50 (CHO-K1): 21 µM
- IC50 (HepG2): 4.9 µM

- IC50 (HepG2): 17000 µM
Structure (SMILES): N[C@@H](Cc1c[nH]c2ccccc12)C(=O)O [TRYPTOPHAN]

Structure (SMILES): Cl.Cl.NC(Cc1c[nH]c2ccccc12)C(=O)NCCCCCCNc1c2c(nc3cc(Cl)ccc13)CCCC2 (racemic)
- IC50 (Acetylcholinesterase [1]): 0.0074 µM
- IC50 (Cholinesterase): 0.013 µM
- IC50 (Nitric oxide synthase 1): 33 µM
- permeability [2]: Permeable
- IC50 (CHO-K1): 21 µM
- IC50 (HepG2): 5.1 µM

Structure (SMILES): Cl.Cl.N[C@@H](Cc1c[nH]c2ccccc12)C(=O)NCCCCCNc1c2c(nc3ccccc13)CCCC2
- IC50 (Acetylcholinesterase [1]): 0.32 µM
- IC50 (Cholinesterase): 0.023 µM
- IC50 (Nitric oxide synthase 1): 26 µM
- permeability [2]: Impermeable
- IC50 (CHO-K1): 83 µM

Structure (SMILES): Cl.Cl.N[C@@H](Cc1c[nH]c2ccccc12)C(=O)NCCNc1c2c(nc3ccccc13)CCCC2
- IC50 (Acetylcholinesterase [1]): 0.73 µM
- IC50 (Cholinesterase): 0.056 µM
- IC50 (Nitric oxide synthase 1): 33 µM
- permeability [2]: Impermeable
- IC50 (CHO-K1): 200 µM

- permeability [2]: Permeable
- IC50 (HepG2): 71 µM
Structure (SMILES): Nc1c2c(nc3cc(Cl)ccc13)CCCC2
- IC50 (CHO-K1): 71 µM

Structure (SMILES): COc1ccc2nc3c(c(NCCCCCCNC(=O)[C@@H](N)Cc4c[nH]c5ccccc45)c2c1)CCCC3
- IC50 (Acetylcholinesterase [1]): 0.94 µM
- IC50 (Cholinesterase): 0.055 µM
- IC50 (Nitric oxide synthase 1): 27 µM
- IC50 (CHO-K1): 23 µM
- IC50 (HepG2): 16 µM

Structure (SMILES): N[C@@H](Cc1c[nH]c2ccccc12)C(=O)NCCCCCCCCNc1c2c(nc3ccccc13)CCCC2
- IC50 (Acetylcholinesterase [1]): 0.076 µM
- IC50 (Cholinesterase): 0.064 µM
- IC50 (Nitric oxide synthase 1): 37 µM
- IC50 (CHO-K1): 47 µM
- IC50 (HepG2): 9.3 µM

Structure (SMILES): Cl.Cl.N[C@@H](Cc1c[nH]c2ccccc12)C(=O)NCCCCCCCCNc1c2c(nc3cc(Cl)ccc13)CCCC2
- IC50 (Acetylcholinesterase [1]): 0.05 µM
- IC50 (Cholinesterase): 0.14 µM
- IC50 (Nitric oxide synthase 1): 43 µM
- permeability [2]: Permeable
- IC50 (CHO-K1): 65 µM
